Consider two molecules from patent US6316424A, “Sulfated phosphatidylinositols, their preparation and use of the same” (The Board of Trustees of the University of Illinois, priority 2000, dated 2001).

What is called EC50 is the concentration at which the effect is half-maximal.

Structures can show the parent of a compound that is named as a salt.

In data set [1] the test system is HIV-1 virus. Kind of data set: In vitro anti-HIV activity, XTT/formazan cell viability protection (NCI, method of Gustafson et al.). It is filed as cell-based, HIV-1 (human lymphoblastoid cells). As to conditions: Human immunodeficiency virus 1, 168 h; Table 3; 7 days; PSL values normalized to SPI content. The protocol: A number of formulations of SPI and PSLs were prepared and their in vitro anti-HIV activity determined by the National Cancer Institute at the National Institutes of Health, Bethesda, Md., using the method of Gustafson et al, J. Nat. Can. Inst., 81(16), 1254-1258 (1989). Varying concentrations of each formulation were mixed with cultured human lymphoblastoid cells, then cocultivated with host cells chronically infected with HIV-1 virus at 37° C. After 7 days, the cell culture is incubated with a mixture of tetrazolium salt XTT and phenazine methylsulfate for 4 hours. […] Formazan absorbs visible light at 450 nm. Therefore, the amount of formazan produced is a direct measurement of cell viability and, consequently, an estimate of the anti-HIV activity of each formulation. Formazan production in normal, uninfected cells is labelled as control.
In particular, the following compositions were assayed for anti-HIV activity. The data and effective concentration (ED50), i.e., the minimum concentration that protects 50% of the cells against infection, of each composition are summarized in FIGS. 5-7 and the results summarized in Table 3. Control values were obtained by incubating lymphoblastoid cells with each formulation in the absence of HIV. […]
A general note: Formazan colour is commonly taken as a measure of viable cells.

The nature of data set [2]: Surface tension / critical micelle concentration (Fisher Scientific Surface Tensiometer). It is filed as physicochemical. The procedure:
The surface activity of SPI also was determined. In this test, dilutions of SPI were prepared and the surface tension of each solution measured using a Fisher Scientific Surface Tensiometer. The critical micelle concentration (CMC) of SPI was estimated as the minimum concentration at which the surface tension remains constant. For SPI, the CMC is about 0.10 mg/mL. […] Accordingly, the addition of sulfate groups to PI alters its aqueous behavior, shifting the tendency of the phospholipid from forming vesicles to forming micelles.

`CC(C)Nc1cccnc1N1CCN(C(=O)c2cc3cc(NS(C)(=O)=O)ccc3[nH]2)CC1` [Delaviridine, Delaviridine mesylate, reference compound] came in with an EC50 in data set [1] of 0.031 µg/mL.
For the molecule phosphatidylinositol [PI], the “behavior on addition of water (in words)” value in data set [2] is “formation of phosphatidylinositol liposomes”. The “surface activity (in words)” value in data set [2] (surface tension measurements, compared with SPI) was “no similar surface activity”.
